Test results as given in the NIST ThermoML archive (doi:10.1021/je0602418).
Values joined by “and” are separate entries in the source; they are usually repeats but may differ in a detail not shown here. Identical values can stand only once.

Settings: for Critical pressure / Critical temperature: pulse heating method

COC(=O)CC(=O)OC [dimethyl 1,3-propanedioate]
Liquid, Transpiration method
Settings | vapor or sublimation pressure [kPa]
278.2 K | 0.0117
281.2 K | 0.01507
284.3 K | 0.01969
287.2 K | 0.02593
290.8 K | 0.03523
293.2 K | 0.04253
296.1 K | 0.0533
298 K | 0.06386
299.4 K | 0.06974
302.2 K | 0.08729
303.3 K | 0.09423
305.3 K | 0.1063
308.4 K | 0.1313
311.2 K | 0.165
314.3 K | 0.2046

Liquid
Settings | Critical pressure [kPa] | Critical temperature [K]
– | 3530 | 649

COC(=O)CCC(=O)OC [dimethyl 1,4-butanedioate]
Liquid, Transpiration method
Settings | vapor or sublimation pressure [kPa]
286.4 K | 0.01062
289.4 K | 0.01389
292.3 K | 0.01793
295.2 K | 0.02339
298.1 K | 0.0292
301.1 K | 0.03798
304.2 K | 0.04988
307.2 K | 0.06242
310.2 K | 0.07685
313.2 K | 0.09759
316.2 K | 0.1187
319.2 K | 0.1462
322.3 K | 0.1846
325.3 K | 0.2206
328.3 K | 0.2686
331.4 K | 0.3232
334.5 K | 0.395
337.5 K | 0.4891
340.6 K | 0.6151

Liquid
Settings | Critical pressure [kPa] | Critical temperature [K]
– | 3060 | 662

COC(=O)CCCCC(=O)OC [dimethyl 1,6-hexanedioate]
Liquid
Settings | vapor or sublimation pressure
294.2 K | 0.00284 kPa
297.1 K | 0.00356 kPa
297.4 K | 0.00377 kPa
298.1 K | 0.00391 kPa
300.6 K | 0.00505 kPa
303.1 K | 0.00619 kPa
303.3 K | 0.00649 kPa
305.4 K | 0.00775 kPa
308.1 K | 0.00948 kPa and 0.00946 kPa
311.6 K | 0.01308 kPa
313.2 K | 0.01501 kPa
314.4 K | 0.01648 kPa
317.2 K | 0.02059 kPa
318.2 K | 0.02254 kPa
318.5 K | 0.02198 kPa
320.2 K | 0.02543 kPa
323.3 K | 0.03244 kPa
323.4 K | 0.03434 kPa
326.2 K | 0.03996 kPa
328.3 K | 0.05027 kPa
332.2 K | 0.06088 kPa
333.2 K | 0.07135 kPa
334.3 K | 0.07203 kPa
337.4 K | 0.08819 kPa
338.5 K | 0.1013 kPa and 0.1038 kPa
340.2 K | 0.1114 kPa
343.5 K | 0.1393 kPa and 0.1369 kPa
348.5 K | 0.1893 kPa
348.6 K | 0.2004 kPa
351.7 K | 0.2406 kPa
353.6 K | 0.2604 kPa
358.6 K | 0.3551 kPa and 0.3732 kPa
361.7 K | 0.446 kPa
363.7 K | 0.4731 kPa
368.7 K | 0.6312 kPa and 0.676 kPa
369.7 K | 0.6863 kPa
373.8 K | 0.8347 kPa and 0.8876 kPa

Liquid
Settings | Critical pressure [kPa] | Critical temperature [K]
– | 2500 | 692

COC(=O)CCCCCC(=O)OC [dimethyl 1,7-heptanedioate]
Liquid, Transpiration method
Settings | vapor or sublimation pressure [kPa]
291.3 K | 0.0013
293.3 K | 0.00161
298.3 K | 0.00264
303.2 K | 0.00423
308.2 K | 0.00693
313.2 K | 0.01073
318.2 K | 0.01734
323.2 K | 0.02558
328.2 K | 0.03778
333.1 K | 0.0547
338.2 K | 0.0784
343.2 K | 0.1123
348.1 K | 0.1618
353.1 K | 0.2251

Liquid
Settings | Critical pressure [kPa] | Critical temperature [K]
– | 2370 | 711

COC(=O)C(=O)OC [dimethyl ethanedioate]
Transpiration method
Settings | vapor or sublimation pressure [kPa]
293.3 K, Crystal | 0.04995
296.3 K, Crystal | 0.06801
298.2 K, Crystal | 0.07959
301.2 K, Crystal | 0.1046
303.2 K, Crystal | 0.1298
306.2 K, Crystal | 0.178
308.2 K, Crystal | 0.2104
311.2 K, Crystal | 0.2873
313.2 K, Crystal | 0.3372
316.2 K, Crystal | 0.4466
318.3 K, Crystal | 0.5545
319.2 K, Crystal | 0.6006
321.2 K, Crystal | 0.7191
325.3 K, Crystal | 0.9657
330.4 K, Liquid | 1.399
333.2 K, Liquid | 1.612
335.2 K, Liquid | 1.819
337.2 K, Liquid | 2.022
340.3 K, Liquid | 2.395
343.2 K, Liquid | 2.841
345.3 K, Liquid | 3.144
346.2 K, Liquid | 3.25
349.2 K, Liquid | 3.905
350.4 K, Liquid | 4.141
352.2 K, Liquid | 4.479
355.5 K, Liquid | 5.325
357.2 K, Liquid | 5.707
359.2 K, Liquid | 6.28
360.6 K, Liquid | 6.526
362.2 K, Liquid | 7.181
365.2 K, Liquid | 8.422

Liquid
Settings | Critical pressure [kPa] | Critical temperature [K]
– | 4060 | 639

COC(=O)CCCCCCCC(=O)OC [dimethyl nonanedioate]
Liquid
Settings | vapor or sublimation pressure
298.1 K | 0.00019 kPa
303.1 K | 0.00028 kPa
308.1 K | 0.00054 kPa
313.2 K | 0.0008 kPa and 0.00084 kPa
318.2 K | 0.00138 kPa and 0.00131 kPa
320.2 K | 0.00167 kPa and 0.00164 kPa
323.3 K | 0.00226 kPa
323.4 K | 0.00228 kPa
325.3 K | 0.00278 kPa
328.3 K | 0.00335 kPa and 0.00362 kPa
330.8 K | 0.00466 kPa
333.4 K | 0.00549 kPa and 0.00561 kPa
335.9 K | 0.00711 kPa
338.4 K | 0.00771 kPa and 0.00858 kPa
341 K | 0.01011 kPa
343.4 K | 0.01171 kPa
343.8 K | 0.01311 kPa
348.5 K | 0.01757 kPa
348.6 K | 0.0185 kPa
351.1 K | 0.02169 kPa
353.6 K | 0.02548 kPa and 0.02436 kPa and 0.02518 kPa
358.6 K | 0.03663 kPa
358.7 K | 0.03635 kPa
360.2 K | 0.04123 kPa
363.7 K | 0.05391 kPa and 0.05451 kPa
366.2 K | 0.0656 kPa
368.9 K | 0.07601 kPa and 0.08031 kPa
371.3 K | 0.08918 kPa and 0.08695 kPa
373.8 K | 0.1016 kPa and 0.1065 kPa

COC(=O)CCCCCCC(=O)OC [dimethyl octanedioate]
Liquid, Transpiration method
Settings | vapor or sublimation pressure [kPa]
293.3 K | 0.00062
295.3 K | 0.00077
298.3 K | 0.00105
303.2 K | 0.00169
308.3 K | 0.00273
313.2 K | 0.00451
318.1 K | 0.00698
323.1 K | 0.01107
328.1 K | 0.01684
333.1 K | 0.02524
338.1 K | 0.03923
343 K | 0.05566
348.1 K | 0.08123
352.1 K | 0.1083

Liquid
Settings | Critical pressure [kPa] | Critical temperature [K]
– | 2300 | 723

COC(=O)CCCC(=O)OC [dimethyl pentanedioate]
Liquid
Settings | vapor or sublimation pressure
283.7 K | 0.00275 kPa
286.3 K | 0.00357 kPa
288.4 K | 0.0043 kPa
290.5 K | 0.00564 kPa
293.2 K | 0.00758 kPa
293.3 K | 0.00747 kPa
295.6 K | 0.00958 kPa
296.2 K | 0.00984 kPa
298.2 K | 0.01214 kPa
298.4 K | 0.01204 kPa
300.3 K | 0.01479 kPa
303.2 K | 0.01881 kPa
303.3 K | 0.0193 kPa
305.4 K | 0.02301 kPa
306.2 K | 0.02388 kPa
308.2 K | 0.02904 kPa
309.2 K | 0.03102 kPa
310.2 K | 0.03348 kPa
312.1 K | 0.03995 kPa
313.2 K | 0.04146 kPa
313.5 K | 0.04323 kPa
315.2 K | 0.05031 kPa
315.5 K | 0.05126 kPa
316.2 K | 0.05285 kPa
318.1 K | 0.06049 kPa
318.3 K | 0.06276 kPa
319.2 K | 0.0664 kPa
320.2 K | 0.07343 kPa
320.3 K | 0.06968 kPa
321.4 K | 0.07692 kPa
323.2 K | 0.09072 kPa
323.3 K | 0.08542 kPa and 0.09398 kPa
325.2 K | 0.1033 kPa and 0.1021 kPa
327.1 K | 0.1263 kPa
328.3 K | 0.1276 kPa
329.2 K | 0.148 kPa
330.2 K | 0.1428 kPa
331.3 K | 0.1646 kPa
333.1 K | 0.1752 kPa
333.2 K | 0.1798 kPa
335.3 K | 0.1977 kPa and 0.2051 kPa
338.3 K | 0.2474 kPa and 0.2598 kPa
340.2 K | 0.2719 kPa
341.3 K | 0.3017 kPa
343.1 K | 0.3382 kPa
343.2 K | 0.3425 kPa
345.2 K | 0.3651 kPa
348.1 K | 0.4368 kPa

Liquid
Settings | Critical pressure [kPa] | Critical temperature [K]
– | 2770 | 682

COC(=O)CCCCCCCCC(=O)OC [dimethyl sebacate]
Liquid
Settings | vapor or sublimation pressure [kPa]
304.1 K | 0.00014
308.1 K | 0.0002
313.2 K | 0.00036
318.2 K | 0.00059
323.4 K | 0.00101
328.3 K | 0.00162
333.4 K | 0.0025
338.4 K | 0.00388
343.5 K | 0.00594
348.2 K | 0.00839
353.6 K | 0.01405
355.6 K | 0.01486
358.6 K | 0.01849
363.7 K | 0.02808
368.8 K | 0.03965
373.8 K | 0.05473

Liquid
Settings | Critical pressure [kPa] | Critical temperature [K]
– | 2080 | 742
